Laboratory results published in BindingDB's records for doi:10.1124/jpet.104.074864 (University of Piemonte Orientale, 2005).

Legend:
[1] = target: T1, Fatty-acid amide hydrolase 1 [30-579] (Rattus norvegicus, UniProt P97612)
T1 construct: 30-579
T1 sequence (P97612 whole entry): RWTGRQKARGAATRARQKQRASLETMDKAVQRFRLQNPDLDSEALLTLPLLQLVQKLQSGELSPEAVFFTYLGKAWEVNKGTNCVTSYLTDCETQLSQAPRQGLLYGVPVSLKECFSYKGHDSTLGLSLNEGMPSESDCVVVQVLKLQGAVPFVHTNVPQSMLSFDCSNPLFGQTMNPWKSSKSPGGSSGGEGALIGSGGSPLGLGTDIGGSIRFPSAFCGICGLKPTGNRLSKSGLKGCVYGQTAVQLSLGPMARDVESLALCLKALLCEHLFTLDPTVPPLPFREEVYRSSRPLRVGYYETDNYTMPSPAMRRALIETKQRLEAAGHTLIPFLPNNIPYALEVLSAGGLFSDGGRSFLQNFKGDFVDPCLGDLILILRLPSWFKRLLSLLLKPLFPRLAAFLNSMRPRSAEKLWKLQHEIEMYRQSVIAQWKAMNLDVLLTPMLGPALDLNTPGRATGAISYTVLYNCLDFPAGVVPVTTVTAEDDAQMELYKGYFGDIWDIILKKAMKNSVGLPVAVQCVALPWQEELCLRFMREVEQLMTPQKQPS

[2] = target: Cannabinoid receptor 2 (Homo sapiens, UniProt P34972)
Cannabinoid receptor 2, sequence (P34972 whole entry): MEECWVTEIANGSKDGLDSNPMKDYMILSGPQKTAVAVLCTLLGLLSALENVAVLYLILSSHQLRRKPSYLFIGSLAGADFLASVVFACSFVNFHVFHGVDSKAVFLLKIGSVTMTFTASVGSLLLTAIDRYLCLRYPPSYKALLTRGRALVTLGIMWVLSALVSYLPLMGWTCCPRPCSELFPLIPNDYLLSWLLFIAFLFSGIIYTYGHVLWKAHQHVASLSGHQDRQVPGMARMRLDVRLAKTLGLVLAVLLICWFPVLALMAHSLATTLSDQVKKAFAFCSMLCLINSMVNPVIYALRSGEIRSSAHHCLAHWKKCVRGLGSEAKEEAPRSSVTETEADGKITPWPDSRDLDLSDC

[3] = target: Cannabinoid receptor 1 (Homo sapiens, UniProt P21554)
Cannabinoid receptor 1, sequence (P21554 whole entry): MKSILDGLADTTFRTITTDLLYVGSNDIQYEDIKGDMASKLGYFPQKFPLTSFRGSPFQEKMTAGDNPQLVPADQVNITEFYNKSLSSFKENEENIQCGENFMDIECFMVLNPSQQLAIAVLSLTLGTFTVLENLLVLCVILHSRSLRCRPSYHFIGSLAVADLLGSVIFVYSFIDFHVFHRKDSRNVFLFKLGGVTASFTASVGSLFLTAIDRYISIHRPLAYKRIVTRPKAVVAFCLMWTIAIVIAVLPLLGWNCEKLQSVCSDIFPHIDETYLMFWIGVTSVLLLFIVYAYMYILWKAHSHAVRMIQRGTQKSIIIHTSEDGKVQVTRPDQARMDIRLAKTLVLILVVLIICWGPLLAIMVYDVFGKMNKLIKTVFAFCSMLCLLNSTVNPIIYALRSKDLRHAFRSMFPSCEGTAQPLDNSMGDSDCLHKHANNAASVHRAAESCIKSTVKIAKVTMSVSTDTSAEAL

SMILES | Ki [1] | Ki [2] | Ki [3]
COc1cc(CNC(=O)CCCCC=CC(C)C)ccc1O [CAS_404-86-4] | > 10 µM | > 10 µM | –
CCCCCCCCC=CCCCCCCCC(=O)NCc1ccc(O)c(OC)c1 [CAS_58493-49-5] | > 10 µM | > 10 µM | > 10 µM
CCCCCC[C@@H](O)CC=CCCCCCCCC(=O)NCc1ccc(O)c(OC)c1 [Rinvanil] | > 10 µM | > 10 µM | > 10 µM
CCCCCC[C@H](CC=CCCCCCCCC(=O)NCc1cc(OC)c(O)cc1I)OC(=O)Cc1ccccc1 [PhAR, 6-I] | > 10 µM | 2.2 µM | 2.5 µM
CCCCCC[C@H](CC=CCCCCCCCC(=O)NCc1cc(I)c(O)c(OC)c1)OC(=O)Cc1ccccc1 [PhAR, 5-I] | > 10 µM | 1.5 µM | 5 µM
CCCCCC[C@H](CC=CCCCCCCCC(=O)NCc1ccc(O)c(OC)c1)OC(=O)CCc1ccccc1 [Rinvanil, Phenyl-propionyl] | > 10 µM | – | –
CCCCCC[C@H](CC=CCCCCCCCC(=O)NCc1ccc(O)c(OC)c1)OC(=O)c1ccccc1 [Rinvanil, Benzoil] | > 10 µM | 1.4 µM | 1.3 µM
CCCCCC[C@H](CC=CCCCCCCCC(=O)NCc1ccc(O)c(OC)c1)OC(C)=O [Rinvanil, Acetyl] | > 10 µM | > 10 µM | > 10 µM
CCCCCCC(C/C=C/CCCCCCCC(=O)NCc1ccc(O)c(OC)c1)OC(=O)Cc1ccccc1 (stereo not drawn) [PhAR, ent] | > 10 µM | 0.4 µM | 2.4 µM
CCCCCCC(CCCCCCCCCCC(=O)NCc1ccc(O)c(OC)c1)OC(=O)Cc1ccccc1 (stereo not given) [PhAR, Di-hydro] | > 10 µM | 1.1 µM | 5 µM
CCCCCC[C@H](CC=CCCCCCCCC(=O)NCc1ccc(O)c(OC)c1)OC(=O)Cc1ccccc1 [PhAR] | > 10 µM | 0.3 µM | 2.2 µM
